Results published in ChEMBL document CHEMBL3739275, “Tryptophan dendrimers that inhibit HIV replication, prevent virus entry and bind to the HIV envelope glycoproteins gp120 and gp41” (Eur J Med Chem, 2015).
Active and inactive are the calls of the source. The calls are words filed in the database; no cut-off is given here.

How the values were obtained:
[1] = system: Human immunodeficiency virus 1; assay: Antiviral activity against HIV1 3B infected in human CEM cells assessed as inhibition of virus-induced giant cell formation after 4 to 5 days by microscopic analysis; assay type: functional, organism-based; conditions: CCRF-CEM; for EC50: Human immunodeficiency virus 1, 3B
[2] = system: Human immunodeficiency virus 2; assay: Antiviral activity against HIV2 ROD infected in human CEM cells assessed as inhibition of virus-induced giant cell formation after 4 to 5 days by microscopic analysis; assay type: functional, organism-based; conditions: Human immunodeficiency virus 2, ISOLATE ROD, CCRF-CEM
[3] = Cytotoxicity against human CEM cells assessed as cell count after 3 days; assay type: cell-based; conditions: CEM cells (CCRF-CEM)
[4] = system: Human immunodeficiency virus 1; assay: Antiviral activity against HIV1 NL4.3 infected in human MT4 cells assessed as inhibition of virus-induced cytopathic effect after 5 days by MTS/phenazine ethosulfate method; assay type: functional, organism-based; conditions: Human immunodeficiency virus 1, NL4.3, MT4, 120 h
[5] = system: Human immunodeficiency virus 1; assay: Antiviral activity against HIV1 3B infected in human MT4 cells assessed as inhibition of early viral infection to host cells by measuring p24 production at 10 uM treated 1 to 25 hrs of post infection by ELISA; assay type: functional, organism-based
[6] = Binding affinity to recombinant HIV1 3B gp-120 expressed in CHO cells at 50 uM by surface plasmon resonance assay; conditions: Human immunodeficiency virus 1
[7] = system: Human immunodeficiency virus 1; assay: Binding affinity to recombinant HIV1 HxB2 gp-41 at 50 uM by surface plasmon resonance assay
[8] = Selectivity index, ratio of CC50 for human CEM cells to EC50 for HIV1 3B; assay type: toxicity, cell-based, CCRF-CEM; conditions: read-out: Ratio CC50/EC50
[9] = Binding affinity to recombinant HIV1 3B gp-120 expressed in CHO cells by surface plasmon resonance assay; design: species or system Human immunodeficiency virus 1; conditions: read-out: Kd(app)

Structure (SMILES) | EC50 [1] [µM] | EC50 [2] [µM] | CC50 at 72 h [3] [µM] | Activity [1] | EC50 [4] [µM] | Activity [5] | Activity [6] | Activity [7] | selectivity ratio [8] | Kd [9] [µM]
O=C(O)CCC(CCC(=O)O)(CCC(=O)O)NC(=O)CN(CCN(CC(=O)NC(CCC(=O)O)(CCC(=O)O)CCC(=O)O)CC(=O)NC(CCC(=O)O)(CCC(=O)O)CCC(=O)O)CC(=O)NC(CCC(=O)O)(CCC(=O)O)CCC(=O)O | > 250 | > 250 | > 250 | – | – | – | – | – | – | –
CCc1c(CC(=O)NC(CCC(=O)O)(CCC(=O)O)CCC(=O)O)c(CC)c(CC(=O)NC(CCC(=O)O)(CCC(=O)O)CCC(=O)O)c(CC)c1CC(=O)NC(CCC(=O)O)(CCC(=O)O)CCC(=O)O | > 250 | > 250 | > 250 | – | – | – | – | – | – | –
C[C@H](Cn1cnc2c(N)ncnc21)OCP(=O)(O)O [TENOFOVIR ANHYDROUS] | – | – | > 100 | – | – | – | – | – | – | –
O=C(CCC(CCC(=O)N[C@@H](Cc1c[nH]c2ccccc12)C(=O)O)(CCC(=O)N[C@H](Cc1c[nH]c2ccccc12)C(=O)O)NC(=O)CN(CC(=O)NC(CCC(=O)N[C@@H](Cc1c[nH]c2ccccc12)C(=O)O)(CCC(=O)N[C@H](Cc1c[nH]c2ccccc12)C(=O)O)CCC(=O)N[C@H](Cc1c[nH]c2ccccc12)C(=O)O)CC(=O)NC(CCC(=O)N[C@H](Cc1c[nH]c2ccccc12)C(=O)O)(CCC(=O)N[C@H](Cc1c[nH]c2ccccc12)C(=O)O)CCC(=O)N[C@H](Cc1c[nH]c2ccccc12)C(=O)O)N[C@@H](Cc1c[nH]c2ccccc12)C(=O)O | 3.2 | – | 59 | Dose-dependent effect | 2.5 | Active | Active | Active | – | –
O=C(CCC(CCC(=O)N[C@@H](Cc1c[nH]c2ccccc12)C(=O)O)(CCC(=O)N[C@@H](Cc1c[nH]c2ccccc12)C(=O)O)NC(=O)CN(CCN(CC(=O)NC(CCC(=O)N[C@@H](Cc1c[nH]c2ccccc12)C(=O)O)(CCC(=O)N[C@@H](Cc1c[nH]c2ccccc12)C(=O)O)CCC(=O)N[C@H](Cc1c[nH]c2ccccc12)C(=O)O)CC(=O)NC(CCC(=O)N[C@@H](Cc1c[nH]c2ccccc12)C(=O)O)(CCC(=O)N[C@H](Cc1c[nH]c2ccccc12)C(=O)O)CCC(=O)N[C@H](Cc1c[nH]c2ccccc12)C(=O)O)CC(=O)NC(CCC(=O)N[C@@H](Cc1c[nH]c2ccccc12)C(=O)O)(CCC(=O)N[C@H](Cc1c[nH]c2ccccc12)C(=O)O)CCC(=O)N[C@H](Cc1c[nH]c2ccccc12)C(=O)O)N[C@@H](Cc1c[nH]c2ccccc12)C(=O)O | 11.3 | ≥ 30 | > 30 | Dose-dependent effect | – | – | Active | Active | – | –
O=C(CCC(CCC(=O)N[C@@H](Cc1c[nH]c2ccccc12)C(=O)O)(CCC(=O)N[C@H](Cc1c[nH]c2ccccc12)C(=O)O)NC(=O)[C@H]1C[C@@H](C(=O)NC(CCC(=O)N[C@@H](Cc2c[nH]c3ccccc23)C(=O)O)(CCC(=O)N[C@H](Cc2c[nH]c3ccccc23)C(=O)O)CCC(=O)N[C@H](Cc2c[nH]c3ccccc23)C(=O)O)C[C@@H](C(=O)NC(CCC(=O)N[C@@H](Cc2c[nH]c3ccccc23)C(=O)O)(CCC(=O)N[C@H](Cc2c[nH]c3ccccc23)C(=O)O)CCC(=O)N[C@H](Cc2c[nH]c3ccccc23)C(=O)O)C1)N[C@@H](Cc1c[nH]c2ccccc12)C(=O)O | 4.5 | – | > 250 | Dose-dependent effect | 2 | – | Active | Active | > 55 | –
CCc1c(CC(=O)NC(CCC(=O)N[C@@H](Cc2c[nH]c3ccccc23)C(=O)O)(CCC(=O)N[C@@H](Cc2c[nH]c3ccccc23)C(=O)O)CCC(=O)N[C@H](Cc2c[nH]c3ccccc23)C(=O)O)c(CC)c(CC(=O)NC(CCC(=O)N[C@@H](Cc2c[nH]c3ccccc23)C(=O)O)(CCC(=O)N[C@H](Cc2c[nH]c3ccccc23)C(=O)O)CCC(=O)N[C@H](Cc2c[nH]c3ccccc23)C(=O)O)c(CC)c1CC(=O)NC(CCC(=O)N[C@@H](Cc1c[nH]c2ccccc12)C(=O)O)(CCC(=O)N[C@H](Cc1c[nH]c2ccccc12)C(=O)O)CCC(=O)N[C@H](Cc1c[nH]c2ccccc12)C(=O)O | 6.2 | – | > 100 | Dose-dependent effect | – | – | Active | Active | – | –
CN[C@@H]1[C@H](O[C@@H]2OC[C@@H](O)[C@H](O)[C@H]2O)[C@@H](O)[C@H](O[C@H]2c3cc(C)c(C(=O)N[C@H](C)C(=O)O)c(O)c3-c3c(cc4c(c3O)C(=O)c3cc(OC)cc(O)c3C4=O)[C@@H]2O)O[C@@H]1C [PRADIMICIN A] | – | – | > 100 | – | – | – | – | – | – | –
O=C(CCC(CCC(=O)N[C@@H](Cc1c[nH]c2ccccc12)C(=O)O)(CCC(=O)N[C@H](Cc1c[nH]c2ccccc12)C(=O)O)NC(=O)c1cc(C(=O)NC(CCC(=O)N[C@@H](Cc2c[nH]c3ccccc23)C(=O)O)(CCC(=O)N[C@H](Cc2c[nH]c3ccccc23)C(=O)O)CCC(=O)N[C@H](Cc2c[nH]c3ccccc23)C(=O)O)cc(C(=O)NC(CCC(=O)N[C@@H](Cc2c[nH]c3ccccc23)C(=O)O)(CCC(=O)N[C@H](Cc2c[nH]c3ccccc23)C(=O)O)CCC(=O)N[C@H](Cc2c[nH]c3ccccc23)C(=O)O)c1)N[C@@H](Cc1c[nH]c2ccccc12)C(=O)O | 2.6 | – | 53 | Dose-dependent effect | 1.3 | – | Active | Active | – | –
O=C(CCC(CCC(=O)N[C@@H](Cc1c[nH]c2ccccc12)C(=O)O)(CCC(=O)N[C@H](Cc1c[nH]c2ccccc12)C(=O)O)NC(=O)CCC(CCC(=O)NC(CCC(=O)N[C@@H](Cc1c[nH]c2ccccc12)C(=O)O)(CCC(=O)N[C@@H](Cc1c[nH]c2ccccc12)C(=O)O)CCC(=O)N[C@H](Cc1c[nH]c2ccccc12)C(=O)O)(CCC(=O)NC(CCC(=O)N[C@@H](Cc1c[nH]c2ccccc12)C(=O)O)(CCC(=O)N[C@H](Cc1c[nH]c2ccccc12)C(=O)O)CCC(=O)N[C@H](Cc1c[nH]c2ccccc12)C(=O)O)[N+](=O)[O-])N[C@@H](Cc1c[nH]c2ccccc12)C(=O)O | 9.9 | 44 | > 100 | Dose-dependent effect | – | – | Active | Active | – | –
O=C(O)CCC(CCC(=O)O)(CCC(=O)O)NC(=O)C[C@H]1C[C@@H](CC(=O)NC(CCC(=O)O)(CCC(=O)O)CCC(=O)O)C[C@@H](CC(=O)NC(CCC(=O)O)(CCC(=O)O)CCC(=O)O)C1 | > 250 | > 250 | > 250 | – | – | – | – | – | – | –
CCc1c(CNc2nc(N[C@@H](Cc3c[nH]c4ccccc34)C(=O)O)nc(N[C@@H](Cc3c[nH]c4ccccc34)C(=O)O)n2)c(CC)c(CNc2nc(N[C@@H](Cc3c[nH]c4ccccc34)C(=O)O)nc(N[C@@H](Cc3c[nH]c4ccccc34)C(=O)O)n2)c(CC)c1CNc1nc(N[C@@H](Cc2c[nH]c3ccccc23)C(=O)O)nc(N[C@@H](Cc2c[nH]c3ccccc23)C(=O)O)n1 | – | – | > 250 | – | – | – | – | – | – | 14
